From US9643970B2, “Substituted imidazo [1,5-a]pyrazines as PDE9 inhibitors” (H Lundbeck A/S, priority 2012, dated 2017)

target: PDE9 (Homo sapiens, UniProt O76083); assay: PDE9 inhibition assay; type: biochemical; details: not given
Method: Reactions are initiated by addition of the cyclic nucleotide substrate, and reactions are allowed to proceed for one hr at room temperature before being terminated through mixing with 15 uL 8 mg/mL yttrium silicate SPA beads (Amersham). […] IC50 values were calculated by non linear regression using XLfit (IDBS).

PDE9, sequence (O76083 whole entry): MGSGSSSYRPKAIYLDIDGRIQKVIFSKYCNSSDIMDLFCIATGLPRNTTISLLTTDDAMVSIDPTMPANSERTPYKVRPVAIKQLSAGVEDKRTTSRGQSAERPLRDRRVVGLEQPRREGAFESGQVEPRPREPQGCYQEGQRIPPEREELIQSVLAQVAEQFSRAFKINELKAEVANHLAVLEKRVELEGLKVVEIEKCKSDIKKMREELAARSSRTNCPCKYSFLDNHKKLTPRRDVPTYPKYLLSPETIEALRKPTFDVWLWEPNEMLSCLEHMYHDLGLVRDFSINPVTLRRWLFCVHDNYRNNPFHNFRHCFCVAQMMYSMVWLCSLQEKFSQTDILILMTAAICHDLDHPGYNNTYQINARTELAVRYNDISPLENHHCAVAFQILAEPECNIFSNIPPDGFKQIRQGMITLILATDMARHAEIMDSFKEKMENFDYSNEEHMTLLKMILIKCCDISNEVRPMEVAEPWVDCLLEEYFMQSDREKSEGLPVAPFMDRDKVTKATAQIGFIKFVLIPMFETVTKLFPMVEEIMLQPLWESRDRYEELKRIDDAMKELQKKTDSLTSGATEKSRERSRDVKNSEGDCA

IC50 | Structure (SMILES)
7 nM | O=c1[nH]c(CN2CC(Oc3cccc(F)c3)C2)cn2c(C3CCOCC3)ncc12 [Compound 71, 6-[[3-(3-fluorophenoxy)azetidin-1-yl]methyl]-3-tetrahydropyran-4-yl-7h-imidazo[1,5-a]pyrazin-8-one]
3 nM | CC(c1cn2c(C3CCCC3)ncc2c(=O)[nH]1)N1CC(Oc2ccc(F)cc2)C1 (stereo not drawn) [Compound 47, 3-cyclopentyl-6-[1-[3-(4-fluorophenoxy)azetidin-1-yl]ethyl]-7h-imidazo[1,5-a]pyrazin-8-one]
50 nM | O=c1[nH]c(CN2CC(OCc3ccccc3)C2)cn2c(C3CCCC3)ncc12 [Compound 56, 6-[(3-benzyloxyazetidin-1-yl)methyl]-3-cyclopentyl-7h-imidazo[1,5-a]pyrazin-8-one]
22 nM | CC(C)OC1CN(C(C)c2cn3c(-c4ccc(F)cc4)ncc3c(=O)[nH]2)C1 (stereo not drawn) [Compound 116, 3-(4-fluorophenyl)-6-[1-(3-isopropoxyazetidin-1-yl)ethyl]-7h-imidazo[1,5-a]pyrazin-8-one]

same assay, conditions: SPA assay, 10 nM 3H-cAMP, 1 hour incubation; read-out: IC50

IC50 | Structure (SMILES)
16 nM | O=c1[nH]c(CN2CC(Oc3ccc(F)cc3)C2)cn2c(-c3ccccc3)ncc12 [Compound 23, 6-[[3-(4-fluorophenoxy)azetidin-1-yl]methyl]-3-phenyl-7h-imidazo[1,5-a]pyrazin-8-one]
49 nM | CC(c1cn2c(C3CCCC3)ncc2c(=O)[nH]1)N1CC(Oc2ccccc2F)C1 (stereo not drawn) [Compound 52, 3-cyclopentyl-6-[1-[3-(2-fluorophenoxy)azetidin-1-yl]ethyl]-7h-imidazo[1,5-a]pyrazin-8-one]
35 nM | N#Cc1cccc(C2CN(Cc3cn4c(C5CCOCC5)ncc4c(=O)[nH]3)C2)c1 [Compound 107, 3-[1-[(8-oxo-3-tetrahydropyran-4-yl-7h-imidazo[1,5-a]pyrazin-6-yl)methyl]azetidin-3-yl]benzonitrile]
31 nM | O=c1[nH]c(CN2CC(Oc3cccc(F)n3)C2)cn2c(-c3ccccc3)ncc12 [Compound 6, 6-[[3-[(6-fluoro-2-pyridyl)oxy]azetidin-1-yl]methyl]-3-phenyl-7h-imidazo[1,5-a]pyrazin-8-one]
14 nM | CC(c1cn2c(-c3ccccc3)ncc2c(=O)[nH]1)N1CC(Oc2ncccn2)C1 (stereo not drawn) [Compound 7, 3-phenyl-6-[1-(3-pyrimidin-2-yloxyazetidin-1-yl)ethyl]-7h-imidazo[1,5-a]pyrazin-8-one]
32 nM | N#Cc1ccc(C2CN(Cc3cn4c(C5CCOCC5)ncc4c(=O)[nH]3)C2)cc1 [Compound 106, 4-[1-[(8-oxo-3-tetrahydropyran-4-yl-7h-imidazo[1,5-a]pyrazin-6-yl)methyl]azetidin-3-yl]benzonitrile]
72 nM | CC(c1cn2c(-c3ccc(F)cc3)ncc2c(=O)[nH]1)N1CC(c2ccc(F)cc2)C1 (stereo not drawn) [Compound 124, 3-(4-fluorophenyl)-6-[1-[3-(4-fluorophenyl)azetidin-1-yl]ethyl]-7h-imidazo[1,5-a]pyrazin-8-one]
22 nM | O=c1[nH]c(CN2CC(Oc3ncccn3)C2)cn2c(C3CCCC3)ncc12 [Compound 39, 3-cyclopentyl-6-[(3-pyrimidin-2-yloxyazetidin-1-yl)methyl]-7h-imidazo[1,5-a]pyrazin-8-one]
19 nM | CC(c1cn2c(-c3ccccc3)ncc2c(=O)[nH]1)N1CC(Oc2ccc(F)cc2)C1 (stereo not drawn) [Compound 26, 6-[1-[3-(4-fluorophenoxy)azetidin-1-yl]ethyl]-3-phenyl-7h-imidazo[1,5-a]pyrazin-8-one]
19 nM | CCC(c1cn2c(-c3ccccc3)ncc2c(=O)[nH]1)N1CC(c2ccc(F)cc2)C1 (stereo not drawn) [Compound 12, 6-[1-[3-(4-fluorophenyl)azetidin-1-yl]propyl]-3-phenyl-7h-imidazo[1,5-a]pyrazin-8-one]

More lines, now with the values behind:

Structure (SMILES) | IC50
O=c1[nH]c(CN2CC(OCc3ccccc3)C2)cn2c(-c3ccc(F)cc3)ncc12 [Compound 45, 6-[(3-benzyloxyazetidin-1-yl)methyl]-3-(4-fluorophenyl)-7h-imidazo[1,5-a]pyrazin-8-one] | 1 nM
O=c1[nH]c(CN2CCC(Oc3ncccn3)C2)cn2c(-c3ccc(F)cc3)ncc12 (stereo not drawn) [Compound 86, 3-(4-fluorophenyl)-6-[(3-pyrimidin-2-yloxypyrrolidin-1-yl)methyl]-7h-imidazo[1,5-a]pyrazin-8-one] | 233 nM
Cc1ccc(COC2CN(Cc3cn4c(-c5ccc(F)cc5)ncc4c(=O)[nH]3)C2)cc1 [Compound 113, 3-(4-fluorophenyl)-6-[[3-(p-tolylmethoxy)azetidin-1-yl]methyl]-7h-imidazo[1,5-a]pyrazin-8-one] | 9 nM
CC1CN(Cc2ccc(C(F)(F)F)nc2)CC1c1cn2c(C3CCOCC3)ncc2c(=O)[nH]1 (stereo not drawn) [Compound 79, 6-[4-methyl-1-[[6-(trifluoromethyl)-3-pyridyl]methyl]pyrrolidin-3-yl]-3-tetrahydropyran-4-yl-7h-imidazo[1,5-a]pyrazin-8-one] | 23 nM
CC1CN(Cc2ccc(F)cc2)CC1c1cn2c(-c3ccc(F)cc3)nc(Br)c2c(=O)[nH]1 (stereo not drawn) [Compound 100, 1-bromo-3-(4-fluorophenyl)-6-[1-[(4-fluorophenyl)methyl]-4-methyl-pyrrolidin-3-yl]-7h-imidazo[1,5-a]pyrazin-8-one] | 4 nM
O=c1[nH]c(CN2CC(Oc3ccccc3)C2)cn2c(-c3ccccc3)ncc12 [Compound 21, 6-[(3-phenoxyazetidin-1-yl)methyl]-3-phenyl-7h-imidazo[1,5-a]pyrazin-8-one] | 8 nM
CC1CN(Cc2ccccn2)CC1c1cn2c(-c3ccccc3)ncc2c(=O)[nH]1 (stereo not drawn) [Compound 43, 6-[4-methyl-1-(2-pyridylmethyl)pyrrolidin-3-yl]-3-phenyl-7h-imidazo[1,5-a]pyrazin-8-one] | 14 nM
COC1CN(C(C)C2(C)Cn3c(cnc3C3CCOCC3)C(=O)N2)C1 (stereo not drawn) [Compound 112, 6-[1-(3-methoxyazetidin-1-yl)ethyl]-6-methyl-3-tetrahydropyran-4-yl-7h-imidazo[1,5-a]pyrazin-8-one] | 22 nM
O=c1[nH]c(CN2CC(Oc3ccc(Cl)cc3)C2)cn2c(-c3ccc(F)cc3)ncc12 [Compound 118, 6-[[3-(4-chlorophenoxy)azetidin-1-yl]methyl]-3-(4-fluorophenyl)-7h-imidazo[1,5-a]pyrazin-8-one] | 42 nM
COc1ccc(CN2CC(C)C(c3cn4c(C5CCOCC5)ncc4c(=O)[nH]3)C2)cn1 (stereo not drawn) [Compound 101, 6-[1-[(6-methoxy-3-pyridyl)methyl]-4-methyl-pyrrolidin-3-yl]-3-tetrahydropyran-4-yl-7h-imidazo[1,5-a]pyrazin-8-one] | 18 nM
O=c1[nH]c(CN2CCC(Nc3ccccc3)C2)cn2c(-c3ccccc3)ncc12 (stereo not drawn) [Compound 17, 6-[(3-anilinopyrrolidin-1-yl)methyl]-3-phenyl-7h-imidazo[1,5-a]pyrazin-8-one] | 28 nM
CC1CN(Cc2ccc(F)cc2)CC1c1cn2c(-c3ccc(F)cc3)ncc2c(=O)[nH]1 (stereo not drawn) [Compound 99, 3-(4-fluorophenyl)-6-[1-[(4-fluorophenyl)methyl]-4-methyl-pyrrolidin-3-yl]-7h-imidazo[1,5-a]pyrazin-8-one] | 17 nM
O=c1[nH]c(CN2CC(Oc3ccc(C(F)(F)F)cc3)C2)cn2c(-c3ccc(F)cc3)ncc12 [Compound 109, 3-(4-fluorophenyl)-6-[[3-[4-(trifluoromethyl)phenoxy]azetidin-1-yl]methyl]-7h-imidazo[1,5-a]pyrazin-8-one] | 28 nM
